Measured values: patent US20070219213A1, “Use of Adrenergic N-Phenylpiperazine Antagonists, Pahrmaceutical Compositions Containning Them, and Methods of Preparing Them” (priority 2004, published 2007)
“Also recorded” adds a separate entry of the source.

Columns and labels:
[1] = tested on: muscarinic cholinergic receptors; test: Cobaio (guinea pig) trachea contraction induced by carbacol; format: cell-based; conditions: 30 microM compound, carbacol 10 microM
Source text: Selectivity Assay for Protein G-Coupled, Beta-Adrenergic, Muscarinic Cholinergic and Histaminergic Bioreceptors
Determination of the Inhibitory Potency (IC50) of LASSBio 772 on Vasoconstriction of the Cobaio (Guinea Pig) Trachea
Cobaios albinos from both sexes, weighing between 400 and 600 g were used in this experiment. The animals were sacrificed by cervical displacement and posterior bleed. Then, their tracheas were removed, kept in 5 microM indometacin added Krebs-Henseleit physiologic solution and oxygenated with carbogenic mixture (95% O2 and 5% CO2), proceeding the removal of the connective and adhered adipose tissue. From these tracheas were obtained segments with 4-6 rings, that are sectioned in the opposite side of the smooth musculature, originating strips used in the contractions assay (ARAKIDA et al., J. Pharmacol. Exper. Therap., 287: 633-639, 1998). […]
After the period, the organ is treated with agonists that will induce contractions. […] The tissue viability was evaluated by contraction induction with histamine 100 microM or carbacol 10 microM. […]
The compound LASSBio 772 was evaluated in the concentration of 30 microM as for its relaxation capability in comparison to contractions induced by carbacol, muscarinic cholinergic agonist, at a 10 microM concentration.

H1 receptors = target: T1, H1 receptors (Cavia porcellus, UniProt P31389); test: Cobaio (guinea pig) trachea contraction induced by histamine; format: cell-based; conditions: histamine 100 microM, compound 3 nM-30 microM
T1 construct: from tissue; host or cells: guinea pig trachea strips
T1 sequence (P31389 whole entry): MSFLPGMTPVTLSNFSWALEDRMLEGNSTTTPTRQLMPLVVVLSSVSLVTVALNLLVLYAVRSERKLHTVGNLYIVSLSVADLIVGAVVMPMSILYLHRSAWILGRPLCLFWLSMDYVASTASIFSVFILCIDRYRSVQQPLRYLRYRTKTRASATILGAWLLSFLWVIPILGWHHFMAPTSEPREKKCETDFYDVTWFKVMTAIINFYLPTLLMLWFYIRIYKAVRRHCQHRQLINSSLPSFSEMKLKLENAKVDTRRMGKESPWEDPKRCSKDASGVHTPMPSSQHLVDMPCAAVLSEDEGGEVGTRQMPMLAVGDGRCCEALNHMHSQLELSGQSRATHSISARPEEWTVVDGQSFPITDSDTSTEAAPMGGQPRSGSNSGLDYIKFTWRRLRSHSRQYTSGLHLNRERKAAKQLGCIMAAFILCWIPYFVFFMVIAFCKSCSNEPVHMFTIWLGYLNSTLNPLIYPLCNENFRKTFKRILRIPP
Method: These strips were adapted in glass containers of 1.0 mL containing nutritious solution and continuous aeration with carbogenic mixture. The containers are maintained in a bath (Ugo Basile 4050) at the constant temperature of 37±0.50° C., mimicking thus physiologic terms in vitro. The trachea strips were connected to isometric force transducers (Ugo Basile 7011-4), submitted to a tension of 1 g and rested for 1 hour, changing the solution in 15 minute intervals, to obtain the balance to this tension.

[2] = Arterial pressure effects in anesthetized rabbits; format: in vivo; conditions: rabbit
Method: Animal and Homodynamic Measurements:
The experiments were performed with male rabbits weighing 3 kg, from the CECAL (Centro de Criação de Animais de Laboratório) at Fundação Oswaldo Cruz. The animals were anesthetized with sodium pentobarbital (40 mg/kg) in the ear marginal vein, and anesthesia maintenance was obtained with supplemental intravenous (i.v.) doses of 5 mg/kg as necessary. The […] were tracheomized, inserted with a polyethylene canule, and immobilized with pancuronium bromide (1 mg/kg, i.v.), with supplemental doses of 0.2 mg/kg for each hour of experiment and artificially ventilated with a mechanical fan (Rodent ventilator 7025, Ugo Basile) with a volume of 10 ml/kg and frequency from 40 to 50 incursions/min. The right femoral vein was catheterized for drug administration.
The arterial pressure was monitored through abdominal aorta catheter via the right femoral artery and connected to a quartz transductor Hewlett Packard (1290 A), which was connected to an arterial pressure processor and recorder Hewlett Packard (system 7754 with amplifier 8805 B).
The systolic (SAP) and diastolic (DAP) arterial pressures were obtained directly from the records and the average arterial pressure (AAP) was calculated by DAP's Sum with a third of the differential pressure [[…]]. The cardiac frequency was determined by counting the pressure waves, visualized with the speed increase of the recorder paper.
The cardiac debit (DC) was monitored using an electromagnetic probe, connected to a Skalar flowmeter model MDL 1401. After left thoraxatomy, between the second and third ribs, was made an incision in the pericardium and the heart was exposed to enable the visualization and dissection of the ascending aorta for installation of the electromagnetic probe. The systemic vascular resistance (SVR) was calculated as a quotient of the average arterial pressure by the cardiac debit, multiplied by a conversion factor 80 (SVR=AAP/DC×80) and expressed in dyn/seg/cm-5.
At the conclusion of the anesthetic-surgical procedures, a 15-minute period was allowed for stabilization of the homodynamic parameters. Before any pharmacological manipulation the average arterial pressure, cardiac frequency and cardiac debit measurements were obtained. These values were considered basal homodynamic values.
The results were expressed as average±standard deviation (E.P.M.) The administration effects of LASSBio 772 with regard to the basal values were analyzed through variance analysis (ANOVA) for repeated measurements. When a significant statistical difference was found in the test ANOVA, the test Newman-Keuls was used to locate the differences. The paired t test was used to analyze the phenylephrine pressure effects before and after the treatment with LASSBio 772B. Differences with p<0.05 were considered significant. All the calculations were done on the computer, using the statistic software Instat-2.0.
Arterial Pressure Effects of LASSBio 772 Administration: […]

alpha 1A subtype = target: T2, alpha 1A subtype (Rattus norvegicus, UniProt P43140); test: [3H]prazosin binding assay in rat salivary gland; conditions: for selectivity index (I.S. alpha 1B/alpha 1A): alpha 1A versus alpha 1B subtype
T2 sequence (P43140 1-466): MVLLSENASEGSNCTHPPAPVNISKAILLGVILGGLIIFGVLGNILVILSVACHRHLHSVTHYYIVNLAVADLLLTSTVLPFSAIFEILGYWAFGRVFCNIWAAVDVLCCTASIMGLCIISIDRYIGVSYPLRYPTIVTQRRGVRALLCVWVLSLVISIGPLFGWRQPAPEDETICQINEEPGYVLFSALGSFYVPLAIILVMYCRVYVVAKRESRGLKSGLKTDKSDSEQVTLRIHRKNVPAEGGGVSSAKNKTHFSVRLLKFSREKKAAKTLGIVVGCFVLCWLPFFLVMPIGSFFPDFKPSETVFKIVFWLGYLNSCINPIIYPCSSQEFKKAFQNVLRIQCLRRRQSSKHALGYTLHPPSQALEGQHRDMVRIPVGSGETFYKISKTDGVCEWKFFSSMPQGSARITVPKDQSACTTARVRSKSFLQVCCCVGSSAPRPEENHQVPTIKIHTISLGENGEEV

## COc1ccccc1N1CCN(CCc2ccc3c(c2)OCO3)CC1 [LASSBio 772, 1-(2-1,3-Benzodioxol-5-yl-ethyl)-4-(2-methoxy-phenyl)-piperazine]
[1]
  inhibition of carbacol-induced contractions: not able to significantly inhibit the contractions; also recorded: did not present any activity
[1]; n=3
  % of Contraction: 122.1±8.6%
H1 receptors
  IC50: 309 nM
[2]; 100 μg/kg i.v.
  reduction of arterial pressure: ~10%
[2]; 100 μg/kg i.v., n=5
  average arterial pressure (AAP): 79±4 mmHg
  diastolic arterial pressure (DAP): 71±4 mmHg
  systolic arterial pressure (SAP): 94±7 mmHg
[2]; i.v.
  hypotension: without however causing significant clinically hypotension
[2]; i.v., doses 1-100 μg/kg, versus basal values
  dose from which a significant hypo-tensor response was induced: ≥ 3 µg/kg
Alpha 1A subtype
  IC50: 0.26 nM
  selectivity indexes of alpha 1A/alpha 1D versus alpha 1B subtype and beta 2, H1 and cholinergic muscarinic receptors: at least a thousand times
  selectivity index (I.S. alpha 1B/alpha 1A): ≥ 1700
Alpha 1A subtype; listed as LASSBio-772
  selectivity index (I.S. alpha 1B/alpha 1A): 1730
Alpha 1A subtype; rat salivary gland, Cheng Prussof
  Ki: 0.14 nM
